The source of these data is paper PMC9180407, “Unraveling the Binding Mechanism of Alzheimer’s Drugs with Irisin: Spectroscopic, Calorimetric, and Computational Approaches” (International Journal of Molecular Sciences, 2022).

Where two headings read alike, the source gives them in different places.

This test deals with T1, irisin (Homo sapiens, UniProt Q8NAU1).
T1 construct: gene FNDC5; irisin (secreted ectodomain cleaved from FNDC5), His tag with 3C site (pET15b-His-3C-irisin), tag cleavage not mentioned, E. coli C41-DE3, Ni-NTA purified
T1 sequence (Q8NAU1 80-191 limits assumed): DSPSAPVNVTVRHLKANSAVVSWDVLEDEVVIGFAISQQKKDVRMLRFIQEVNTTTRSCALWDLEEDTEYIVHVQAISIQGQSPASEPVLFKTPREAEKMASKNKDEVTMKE
As to the kind of experiment: isothermal titration calorimetry. The test is classed as binding. The source says:
isothermal titration calorimetry on irisin
On the technique in general: In ITC the heat of successive injections is recorded.

For `CNCCC(Oc1ccc(C(F)(F)F)cc1)c1ccccc1` (stereo not drawn) [fluoxetine], under “read-out: Ka1 (converted)”, the Kd was 0.156 µM.

As for `COc1ccc2c3c1O[C@H]1C[C@@H](O)C=C[C@@]31CCN(C)C2` [galantamine], the Kd (read-out: Ka2 (converted)) was 8.06 µM.

On to `CC12CC3CC(C)(C1)CC(N)(C3)C2` [memantine], for which the Kd (read-out: Ka2 (converted)) was 9.35 µM.
